Experimental data: patent US9133240B2, “Compounds binding to the bacterial beta ring” (Centre National de la Recherche Scientifique, priority 2011, dated 2015)
Values joined by “and” are separate entries in the source; they are usually repeats but may differ in a detail not shown here. Identical values can stand only once. Square brackets hold non-standard residues; d marks the D form. Ends that are not written are not given here. Peptide text beside a SMILES is read from it. Phe(3,4-Cl2) = N[C@@H](Cc1ccc(Cl)c(Cl)c1)C(=O)O; Phe(4-Br) = N[C@@H](Cc1ccc(Br)cc1)C(=O)O; Phe(4-Cl) = N[C@@H](Cc1ccc(Cl)cc1)C(=O)O; Phe(4-Me) = Cc1ccc(C[C@H](N)C(=O)O)cc1; hCha = N[C@@H](CCC1CCCCC1)C(=O)O; tBuAla = CC(C)(C)C[C@H](N)C(=O)O; Cha = N[C@@H](CC1CCCCC1)C(=O)O; hLeu = CC(C)CC[C@H](N)C(=O)O

Legend:
[1] = target: T1, E. coli β clamp (Escherichia coli, UniProt P0A988); test: SPR competition assay: inhibition of P1-β interaction by challenging peptides; type: binding; settings: for ΔG: ΔG = −RT ln Ki; for Ki (10^6 M^−1): Ki = (1 + KA[β])/IC50;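 for all read-outs here: SPR responses corrected for background, then fitted with a 1:1 Langmuir binding model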
T1 construct: made in house; host or cells: E. coli BL21 (β); P1 by solid-phase synthesis
T1 sequence (P0A988 whole entry): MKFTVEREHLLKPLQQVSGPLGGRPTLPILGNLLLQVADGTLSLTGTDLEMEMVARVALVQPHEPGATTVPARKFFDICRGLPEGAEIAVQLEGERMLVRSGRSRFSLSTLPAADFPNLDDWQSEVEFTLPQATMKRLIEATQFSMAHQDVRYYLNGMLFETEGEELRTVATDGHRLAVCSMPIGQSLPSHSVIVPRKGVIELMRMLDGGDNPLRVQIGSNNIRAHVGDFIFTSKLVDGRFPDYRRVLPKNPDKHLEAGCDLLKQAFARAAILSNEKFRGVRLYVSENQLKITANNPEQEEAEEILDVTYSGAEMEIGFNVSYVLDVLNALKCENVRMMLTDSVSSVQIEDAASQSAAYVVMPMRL
Procedure: SPR experiments were performed on a Biacore® 3000. […] After subtraction of the background response, the data were fit to the 1:1 Langmuir model using BIAevaluation (Biacore™). […] IC50 values for each challenging peptide were determined by plotting the concentration of peptide against the percentage of binding inhibition. The IC50 value of each peptide was used to calculate Ki (Ki=(1+KA[β])/IC50) which measures the affinity of the challenging peptide for β in the competition assay, and AG was derived from Ki (ΔG=RT ln Ki).

[2] = target: T2, β ring (Escherichia coli, UniProt P0A988); test: Isothermal titration calorimetry (ITC) of peptides into β ring solution; type: binding, E. coli; settings: for N: number of binding sites per β monomer / ΔG / Kd / ΔS (cal/mol/deg): ITC; for ΔG: ΔG = ΔH-TΔS; for ΔΔG (Kcal/mol) = ΔGj − ΔGi, reference i = P7: compared to P7; for ΔΔG (Kcal/mol) = ΔGj − ΔGi, reference i = P11: compared to P11; for ΔΔG (Kcal/mol) = ΔGj − ΔGi, reference i = P13: compared to P13
T2 construct: made in house; host or cells: E. coli BL21
Procedure: ITC was performed by using a ITC200 microcalorimeter from MicroCal. Peptides (400 μM) were titrated in sequential injections (2 μl each) into a β ring solution (300 μl, 20 or 30 μM) at 25° C. Data were corrected from control experiments where peptides were injected in buffer solution (Hepes 10 mM pH 7.4, NaCl 0.15M, EDTA 3 mM, P20 0.005%). Data analysis was performed with Origin 7.0 software.
Target sequence in this assay (P0A988 whole entry): as above

[3] = target: T2, β ring; test: IC50 SPR (μM)
Excerpt: Table printed on a drawing sheet, Figure 4
Head of the field: IC50 SPR (μM)
The patent's description of the figure: FIG. 4: Polymerase competition assay. […] Grey: biochemical assay, black: SPR assay. P15 sequence is Ac-RQLVLF, (SEQ ID No: 15), Scr: scrambled peptide: Ac-ChaFQLD, (SEQ ID No: 33).
First copying reader's note: The biochemical assay row is printed with decimal commas and the SPR row with decimal points.
Where the first naming reader finds the target: passage: the relative affinity of two compounds for the β ring is not dependent from the technique used for measuring said affinities (FIG. 4B)
Target sequence in this assay (P0A988 whole entry, looked up): as the sequence (P0A988 whole entry) above

[4] = peptide 400 μM, β 20 or 30 μM, 25° C
[5] = IC50 (μM), SPR, inhibition of binding of β ring (0.25 μM) to immobilized P1
[6] = Kd (nM), peptide 400 μM, β 20 or 30 μM, 25° C

Compound | ΔG ([1]; SPR) | N: number of binding sites per β monomer [2, 4] | IC50 [1, 5] | Ki (10^6 M^−1) ([1]; SPR) | also measured
CC(C)C[C@H](NC(=O)[C@H](CC(=O)O)NC(=O)[C@H](CC(C)C)NC(=O)[C@@H](N)CCC(N)=O)C(=O)N[C@@H](Cc1ccccc1)C(=O)O [Peptide P5, H-Gln-Leu-Asp-Leu-Phe-OH] | -6.87 kcal/mol | – | – | – | –
CC(=O)N[C@@H](CCC(N)=O)C(=O)N[C@@H](CC(C)C)C(=O)N[C@@H](CC(=O)O)C(=O)N[C@@H](CC(C)C)C(=O)N[C@@H](Cc1ccccc1)C(=O)O [Peptide P6, Ac-Gln-Leu-Asp-Leu-Phe-OH] | -8.22 kcal/mol | 1.11 and 1.14 | – | – | –
CC(=O)N[C@@H](CCC(N)=O)C(=O)N[C@@H](CC1CCCCC1)C(=O)N[C@@H](CC(=O)O)C(=O)N[C@@H](CC(C)C)C(=O)N[C@@H](Cc1ccccc1)C(=O)O [Peptide P7, Ac-Gln-Cha-Asp-Leu-Phe-OH] (Ac-Q[Cha]DLF-OH) | -9.42 kcal/mol | 0.74 and 0.76 | 0.17 µM | 8.01 10^6 M^−1 | ΔG ([2]; 25° C): -8.9 kcal/mol; ΔΔG (Kcal/mol) = ΔGj − ΔGi, reference i = P6 ([2]; from ITC data, compared to P6): -0.66 kcal/mol; Ki [1]: 170 nM; fold decrease in affinity compared to P14 ([1]; SPR): 2 fold; fold increase in interaction/affinity compared to P6 ([1]; SPR): 6 fold
CC(=O)N[C@@H](CCC(N)=O)C(=O)N[C@@H](CCC1CCCCC1)C(=O)N[C@@H](CC(=O)O)C(=O)N[C@@H](CC(C)C)C(=O)N[C@@H](Cc1ccccc1)C(=O)O [Peptide P8, Ac-Gln-hCha-Asp-Leu-Phe-OH] (Ac-Q[hCha]DLF-OH) | -5.74 kcal/mol | – | 82.8 µM | 16.4 10^6 M^−1 | –
CC(=O)N[C@@H](CCC(N)=O)C(=O)N[C@@H](CCC(C)C)C(=O)N[C@@H](CC(=O)O)C(=O)N[C@@H](CC(C)C)C(=O)N[C@@H](Cc1ccccc1)C(=O)O [Peptide P9, Ac-Gln-Hol-Asp-Leu-Phe-OH] | -8.54 kcal/mol | – | 0.74 µM | 1.84 10^6 M^−1 | –
CC(=O)N[C@@H](CCC(N)=O)C(=O)N[C@@H](CC(C)(C)C)C(=O)N[C@@H](CC(=O)O)C(=O)N[C@@H](CC(C)C)C(=O)N[C@@H](Cc1ccccc1)C(=O)O [Peptide P10, Ac-Gln-NptGly-Asp-Leu-Phe-OH] (Ac-Q[tBuAla]DLF-OH) | -8.36 kcal/mol | – | 0.99 µM | 1.36 10^6 M^−1 | –
CC(=O)N[C@@H](CCC(N)=O)C(=O)N[C@@H](CC1CCCCC1)C(=O)N[C@@H](CC(=O)O)C(=O)N[C@@H](CC(C)C)C(=O)N[C@@H](Cc1ccc(C)cc1)C(=O)O [Peptide P11, Ac-Gln-Cha-Asp-Leu-pMePhe-OH] (Ac-Q[Cha]DL[Phe(4-Me)]-OH) | -9.44 kcal/mol | 0.95 | 0.26 µM | 8.43 10^6 M^−1 | ΔG ([2]; 25° C): -8.6 kcal/mol; ΔΔG (Kcal/mol) = ΔGj − ΔGi, reference i = P7 ([2]; from ITC data): +0.25 Kcal/mol
CC(=O)N[C@@H](CCC(N)=O)C(=O)N[C@@H](CC1CCCCC1)C(=O)N[C@@H](CC(=O)O)C(=O)N[C@@H](CC(C)C)C(=O)N[C@@H](Cc1ccc(Cl)cc1)C(=O)O [Peptide P12, Ac-Gln-Cha-Asp-Leu-pClPhe-OH] (Ac-Q[Cha]DL[Phe(4-Cl)]-OH) | -9.73 kcal/mol | 1.02 and 1.06 | 0.16 µM | 13.7 10^6 M^−1 | ΔΔG (Kcal/mol) = ΔGj − ΔGi, reference i = P7 ([2]; from ITC data): -0.6 kcal/mol; ΔΔG (Kcal/mol) = ΔGj − ΔGi, reference i = P11 ([2]; from ITC data): -0.85 kcal/mol; ΔΔG (Kcal/mol) = ΔGj − ΔGi, reference i = P13 ([2]; from ITC data): -0.32 kcal/mol
CC(=O)N[C@@H](CCC(N)=O)C(=O)N[C@@H](CC1CCCCC1)C(=O)N[C@@H](CC(=O)O)C(=O)N[C@@H](CC(C)C)C(=O)N[C@@H](Cc1ccc(Br)cc1)C(=O)O [Peptide P13, Ac-Gln-Cha-Asp-Leu-pBrPhe-OH] (Ac-Q[Cha]DL[Phe(4-Br)]-OH) | -9.71 kcal/mol | 0.85 and 0.83 | 0.096 µM | 13.49 10^6 M^−1 | ΔΔG (Kcal/mol) = ΔGj − ΔGi, reference i = P7 ([2]; from ITC data): -0.28 kcal/mol; ΔΔG (Kcal/mol) = ΔGj − ΔGi, reference i = P11 ([2]; from ITC data): -0.53 kcal/mol
CC(=O)N[C@@H](CCC(N)=O)C(=O)N[C@@H](CC1CCCCC1)C(=O)N[C@@H](CC(=O)O)C(=O)N[C@@H](CC(C)C)C(=O)N[C@@H](Cc1ccc(Cl)c(Cl)c1)C(=O)O [Peptide P14, Ac-Gln-Cha-Asp-Leu-(3,4-di-Cl)Phe-OH] (Ac-Q[Cha]DL[Phe(3,4-Cl2)]-OH) | -9.85 kcal/mol | 0.91 and 0.90 | 0.077 µM | 17 10^6 M^−1 | Kd [2, 6]: ~60 nM; ΔΔG (Kcal/mol) = ΔGj − ΔGi, reference i = P7 ([2]; from ITC data): -0.8 kcal/mol; ΔΔG (Kcal/mol) = ΔGj − ΔGi, reference i = P11 ([2]; from ITC data): -1.05 kcal/mol; ΔΔG (Kcal/mol) = ΔGj − ΔGi, reference i = P12 ([2]; from ITC data, compared to P12): -0.2 kcal/mol; ΔΔG (Kcal/mol) = ΔGj − ΔGi, reference i = P13 ([2]; from ITC data): -0.52 kcal/mol; fold increase compared to the full PolIV enzyme [1]: 4 fold; IC50 ([1]; IC50 SPR (nM), SPR): 0.07 µM; fold increase in interaction/affinity compared to P6 ([1]; SPR): 15 fold; fold increase compared to P1 ([1]; SPR IC50): 115 fold
CC(=O)N[C@@H](CCCNC(=N)N)C(=O)N[C@@H](CCC(N)=O)C(=O)N[C@@H](CC1CCCCC1)C(=O)N[C@@H](CCCNC(=N)N)C(=O)N[C@@H](CC(C)C)C(=O)N[C@@H](Cc1ccccc1)C(=O)O [Peptide P14-7, Ac R Q Cha R L F] (Ac-RQ[Cha]RLF-OH; N-terminus and C-terminus assumed) | – | – | – | – | affinity ratio compared to P7 ([1]; SPR): at least 50
CC(=O)N[C@@H](CCCNC(=N)N)C(=O)N[C@@H](CCC(N)=O)C(=O)N[C@@H](CC1CCCCC1)C(=O)N[C@@H](CCCCN)C(=O)N[C@@H](CC(C)C)C(=O)N[C@@H](Cc1ccccc1)C(=O)O [Peptide P14-8, Ac R Q Cha K L F] (Ac-RQ[Cha]KLF-OH; C-terminus assumed) | – | – | – | – | Ki [1]: 904 nM; affinity for the target ([1]; SPR): 1 µM; fold decrease in affinity compared to P14 ([1]; SPR): 10 fold
CC(=O)N[C@@H](CCC(N)=O)C(=O)N[C@@H](CC1CCCCC1)C(=O)N[C@@H](CC(=O)O)C(=O)N[C@@H](CCC(C)C)C(=O)N[C@@H](Cc1ccccc1)C(=O)O [Peptide P16, Ac Q Cha D hLeu F] (Ac-Q[Cha]D[hLeu]F-OH; C-terminus assumed) | – | – | 0.23 µM | – | –
CC(=O)N[C@@H](CCC(N)=O)C(=O)N[C@@H](CC1CCCCC1)C(=O)N[C@@H](CC(=O)O)C(=O)N[C@@H](CC1CCCCC1)C(=O)N[C@@H](Cc1ccccc1)C(=O)O [Peptide P17, Ac Q Cha D Cha F] (Ac-Q[Cha]D[Cha]F-OH; C-terminus assumed) | – | – | 0.31 µM | – | –
CC(=O)N[C@@H](CCC(N)=O)C(=O)N[C@@H](CC1CCCCC1)C(=O)N[C@@H](CC(=O)O)C(=O)N[C@@H](CCC1CCCCC1)C(=O)N[C@@H](Cc1ccccc1)C(=O)O [Peptide P18, Ac Q Cha D hCha F] (Ac-Q[Cha]D[hCha]F-OH; C-terminus assumed) | – | – | 0.72 µM | – | –
CC(=O)N[C@@H](CCC(N)=O)C(=O)N[C@@H](CC1CCCCC1)C(=O)N[C@@H](CC(=O)O)C(=O)N[C@@H](CC(C)(C)C)C(=O)N[C@@H](Cc1ccccc1)C(=O)O [Peptide P19, Ac Q ChaD NptGly F] (Ac-Q[Cha]D[tBuAla]F-OH; C-terminus assumed) | – | – | 5.63 µM | – | –
CC(=O)N[C@@H](CCC(N)=O)C(=O)N[C@@H](CC1CCCCC1)C(=O)N[C@@H](CC(=O)O)C(=O)N[C@@H](CC(C)C)C(=O)N[C@@H](CC1CCCCC1)C(=O)O [Peptide P20, Ac-Q Cha DL Cha] (Ac-Q[Cha]DL[Cha]-OH; C-terminus assumed) | – | – | 0.41 µM | – | –
CC(=O)N[C@@H](CCC(N)=O)C(=O)N[C@@H](CC1CCCCC1)C(=O)N[C@@H](CC(=O)O)C(=O)N[C@@H](CC(C)C)C(=O)N[C@@H](Cc1c[nH]c2ccccc12)C(=O)O [Peptide P21, Ac-Q Cha DLW] (Ac-Q[Cha]DLW-OH; C-terminus assumed) | – | – | 0.64 µM | – | –
Ac-RQLVLF [Peptide P15, Ac-RQLVLF] | – | – | – | – | IC50 [3]: 1910 nM
H-RQLVFL-OH [Peptide P4, H-Arg-Gln-Leu-Val-Phe-Leu-OH] | – | – | 256 µM | – | –
H-RQLVLF-OH [Peptide P3, H-Arg-Gln-Leu-Val-Leu-Phe-OH] | -7.04 kcal/mol | 1.54 and 1.45 | 8.62 µM | 0.15 10^6 M^−1 | ΔS (cal/mol/deg) ([2]; 25° C): 6.05 cal/mol/deg and 6.6 cal/mol/deg; Kd [2, 6]: 2820 nM and 2320 nM
H-RQLVLGL-OH [Peptide P1, H-Arg-Gln-Leu-Val-Leu-Gly-Leu-OH, reference compound] | -7.06 kcal/mol | 1.33 and 1.31 | 8.85 µM | 0.15 10^6 M^−1 | ΔS (cal/mol/deg) ([2]; 25° C): 12.8 cal/mol/deg and 7.6 cal/mol/deg; Kd ([2]; affinity (ITC)): 1000 to 2000 nM; fold less efficient binding to the ring compared to the whole polymerase PolIV ([1]; SPR): 30 fold
H-RQLVLL-OH [Peptide P2, H-Arg-Gln-Leu-Val-Leu-Leu-OH] | -6.54 kcal/mol | – | 21.5 µM | 0.0063 10^6 M^−1 | –
